The source of these data is ChEMBL document CHEMBL1130000, “Studies of pyrrolo[1,2-alpha]benzimidazolequinone DT-diaphorase substrate activity, topoisomerase II inhibition activity, and DNA reductive alkylation” (J Med Chem, 1997).

Holding throughout (type): functional
The species named for one assay is Rattus norvegicus. The assay is described as follows: Maximum velocity was determined for rat liver DT diaphorase substrate activity.
Assay [1] concerns Nucleic Acid. The assay is described as follows: Compound tested for its selectivity for incorporation into poly(dA-dT) DNA base pairs.
Assay [2] has as its system Nucleic Acid. The assay is described as follows: Compound tested for its selectivity for incorporation into poly(dA) DNA base pairs.
Assay [3] deals with Nucleic Acid. As to the kind of experiment: Compound tested for its selectivity for incorporation into poly(dG) DNA base pairs.

As usually defined, the Vmax is the top rate of the reaction or transport when substrate is in excess.

As to `CCCCC1=C(N2CC2)C(=O)c2nc3n(c2C1=O)CCC3OC(C)=O` (racemic), in the assay filed under Rattus norvegicus, the Vmax was 8.5 nM/s.
The same measure, in the same setting: next, `CC(=O)NC1=C(C)C(=O)c2c(nc3n2CCC3OC(C)=O)C1=O` (racemic): 38.6 nM/s.
Turning to `CC(=O)NC1CCn2c1nc1c2C(=O)C(C)=C(N2CC2)C1=O` (racemic), the values for the Selectivity with Nucleic Acid [1], in the assay with Nucleic Acid [2] and in the assay on Nucleic Acid [3] were 28%, 41.5% and 8.2%, respectively. Moreover, the Vmax in the assay filed under Rattus norvegicus worked out at 8.3 nM/s.
`COCC(=O)OC1CCn2c1nc1c2C(=O)C(C)=C(NC(C)=O)C1=O` (racemic): the Vmax in the assay listed under Rattus norvegicus was determined as 9.8 nM/s.
Same read-out and setting: for `CCCCC1=C(NC(C)=O)C(=O)c2nc3n(c2C1=O)CCC3` the value was 18.1 nM/s.
In the case of `CC(=O)NC1=C(C)C(=O)c2c(nc3n2CC[C@H]3OC(C)=O)C1=O`, in the assay listed under Rattus norvegicus, the Vmax is 14.6 nM/s.
On the same count and under the same terms, for `CCCC(=O)OC1CCn2c1nc1c2C(=O)C(C)=C(NC(C)=O)C1=O` (racemic) the value was 42.3 nM/s; for `CC(=O)NC1=C(C)C(=O)c2c(nc3n2CC[C@@H]3OC(C)=O)C1=O`, 20.4 nM/s.
Turning to `CC(=O)N[C@H]1CCn2c1nc1c2C(=O)C(C)=C(N2CC2)C1=O`, the Selectivity with Nucleic Acid [1] was found to be 38%; in the assay with Nucleic Acid [2] it was 32.7%; in the assay with Nucleic Acid [3], 12.1%. In addition, the Vmax in the assay filed under Rattus norvegicus worked out at 2.2 nM/s.
Consider `CC(=O)NC1=C(C)C(=O)c2c(nc3n2CCC3OC(=O)c2ccccc2)C1=O` (racemic), for which the Vmax in the assay listed under Rattus norvegicus amounted to 27.9 nM/s.
The same measure, in the same setting: for `COCC(=O)O[C@@H]1CCn2c1nc1c2C(=O)C(C)=C(NC(C)=O)C1=O` the value was 16.7 nM/s.
Take `CC(=O)OC1CCn2c1nc1c2C(=O)C(C)=C(N2CC2)C1=O` (racemic): in the assay filed under Rattus norvegicus, the Vmax stood at 66.5 nM/s.
As to `CCCCC1=C(NC(C)=O)C(=O)c2nc3n(c2C1=O)CCC3OC(C)=O` (centres undefined), the Vmax in the assay listed under Rattus norvegicus turned out to be 15.4 nM/s.
`CC(=O)O[C@H]1CCn2c1nc1c2C(=O)C(C)=C(N2CC2)C1=O` (stereo in doubt; (-)) yielded a Selectivity in the assay with Nucleic Acid [2] of 8.5%. In addition, in the assay filed under Rattus norvegicus, the Vmax worked out at 62.6 nM/s.
Taken in the same sequence, the figures for `CC(=O)O[C@H]1CCn2c1nc1c2C(=O)C(C)=C(N2CC2)C1=O` (stereo in doubt; (+)) were 5.9% and 83.4 nM/s.
As to `COCC(=O)O[C@H]1CCn2c1nc1c2C(=O)C(C)=C(NC(C)=O)C1=O`, in the assay listed under Rattus norvegicus, the Vmax amounted to 28.2 nM/s.
